The record followed here is patent US9260425B2 (Genetech, Inc., priority 2011, dated 2016).

Sequence of Pim-1 (P11309 whole entry): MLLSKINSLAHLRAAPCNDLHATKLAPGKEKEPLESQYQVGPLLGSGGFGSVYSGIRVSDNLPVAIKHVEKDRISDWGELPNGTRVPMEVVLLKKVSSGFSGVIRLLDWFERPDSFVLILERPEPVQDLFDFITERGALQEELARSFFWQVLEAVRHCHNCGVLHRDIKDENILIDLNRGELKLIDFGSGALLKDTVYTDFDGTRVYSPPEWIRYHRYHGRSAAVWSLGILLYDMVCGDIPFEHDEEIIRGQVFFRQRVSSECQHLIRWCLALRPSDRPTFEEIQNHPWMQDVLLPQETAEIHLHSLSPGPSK

The target of this assay is Pim-1 (Homo sapiens (Human), UniProt P11309). The experiment in a line: Pim kinase binding activity assay (Example 901), PIM-1 enzyme, Caliper microfluidic peptide phosphorylation. The class given is biochemical. The following applies: 20 pM PIM-1, 10 μM ATP, 1 μM FAM-peptide, 90 minutes at room temperature. In short, it runs like this:
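The readout was microfluidic mobility-shift separation of a FAM-tagged Pim-specific peptide, excited at 488 nm and read at 530 nm, with Ki calculated from percent conversion. Reactions held 20 pM PIM-1, 1 μM peptide and 10 μM ATP in pH 7.2 HEPES/MgCl2/DTT buffer, ran 90 min at room temperature and were stopped with EDTA.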
As a reminder, the Ki is the equilibrium dissociation constant of an inhibitor or competing ligand from its target. With `CC(C)n1cc(-c2cc3c(-c4cccc(N5CCNCC5)n4)n[nH]c3cn2)cn1` [Example 389, 5-(1-isopropyl-1H-pyrazol-4-yl)-3-(6-(piperazin-1-yl)pyridin-2-yl)-1H-pyrazolo[3,4-c]pyridine], the Ki was determined as 0.213 nM.

Take `FCCn1cc(-c2cc3c(-c4cccc(N5CCNCC5)n4)n[nH]c3cn2)cn1` [Example 391, 5-(1-(2-fluoroethyl)-1H-pyrazol-4-yl)-3-(6-(piperazin-1-yl)pyridin-2-yl)-1H-pyrazolo[3,4-c]pyridine]: the Ki came to 0.108 nM.

Turning to `Cn1cc(-c2cc3c(-c4ccc(Br)c(N5CCC(N)CC5)n4)n[nH]c3cn2)cn1` [Example 392, 1-(3-bromo-6-(5-(1-methyl-1H-pyrazol-4-yl)-1H-pyrazolo[3,4-c]pyridin-3-yl)pyridin-2-yl)piperidin-4-amine], the Ki worked out at 0.03 nM.

The compound `Cn1cc(-c2cc3c(-c4ccc(Br)c(N5CCC[C@H](O)C5)n4)n[nH]c3cn2)cn1` [Example 393, (S)-1-(3-bromo-6-(5-(1-methyl-1H-pyrazol-4-yl)-1H-pyrazolo[3,4-c]pyridin-3-yl)pyridin-2-yl)piperidin-3-ol] yielded a Ki of 0.333 nM.

Consider `Cn1cc(-c2cc3c(-c4ccc(Br)c(N5CCC[C@@H](O)C5)n4)n[nH]c3cn2)cn1` [Example 394, (R)-1-(3-bromo-6-(5-(1-methyl-1H-pyrazol-4-yl)-1H-pyrazolo[3,4-c]pyridin-3-yl)pyridin-2-yl)piperidin-3-ol], for which the Ki is 0.316 nM.

With `CCn1cc(-c2cc3c(-c4cccc(N5C[C@H]6CNC[C@H]6C5)n4)n[nH]c3cn2)cn1` [Example 395], affinity was put at a Ki of 0.404 nM.

Take `CCn1cc(-c2cc3c(-c4cccc(N5CCN[C@@H](C)C5)n4)n[nH]c3cn2)cn1` [Example 396, (S)-5-(1-ethyl-1H-pyrazol-4-yl)-3-(6-(3-methylpiperazin-1-yl)pyridin-2-yl)-1H-pyrazolo[3,4-c]pyridine]: affinity was put at a Ki of 0.081 nM.

As for `CCn1cc(-c2cc3c(-c4cccc(N5CCN[C@H](C)C5)n4)n[nH]c3cn2)cn1` [Example 397, (R)-5-(1-ethyl-1H-pyrazol-4-yl)-3-(6-(3-methylpiperazin-1-yl)pyridin-2-yl)-1H-pyrazolo[3,4-c]pyridine], the affinity, expressed as Ki, was 0.046 nM.

`N#Cc1cc2c(-c3cccc(N4CCC[C@@H](N)C4)n3)n[nH]c2cn1` [Example 398, (R)-3-(6-(3-aminopiperidin-1-yl)pyridin-2-yl)-1H-pyrazolo[3,4-c]pyridine-5-carbonitrile] displayed a Ki of 39.1 nM.

`N#Cc1cc2c(-c3cccc(N4CCC[C@H](N)C4)n3)n[nH]c2cn1` [Example 399, (S)-3-(6-(3-aminopiperidin-1-yl)pyridin-2-yl)-1H-pyrazolo[3,4-c]pyridine-5-carbonitrile] had a Ki of 22.6 nM.

For `N#Cc1cc2c(-c3cccc(N4CCNCC4)n3)n[nH]c2cn1` [Example 400, 3-(6-(piperazin-1-yl)pyridin-2-yl)-1H-pyrazolo[3,4-c]pyridine-5-carbonitrile], the Ki was found to be 51.1 nM.

As to `c1cc(-c2n[nH]c3cnc(N4CCOCC4)cc23)nc(N2CCNCC2)c1` [Example 401, 4-(3-(6-(piperazin-1-yl)pyridin-2-yl)-1H-pyrazolo[3,4-c]pyridin-5-yl)morpholine], the Ki came to 3.29 nM.

Compound `CN1CCN(c2nc(-c3n[nH]c4cnc(-c5cnn(C)c5)cc34)ccc2Br)CC1` [Example 402, 3-(5-bromo-6-(4-methylpiperazin-1-yl)pyridin-2-yl)-5-(1-methyl-1H-pyrazol-4-yl)-1H-pyrazolo[3,4-c]pyridine] registered a Ki of 0.07 nM.

For `CCn1cc(-c2cc3c(-c4ccc(Br)c(N5CCC[C@H](N)C5)n4)n[nH]c3cn2)cn1` [Example 403, (S)-1-(3-bromo-6-(5-(1-ethyl-1H-pyrazol-4-yl)-1H-pyrazolo[3,4-c]pyridin-3-yl)pyridin-2-yl)piperidin-3-amine], the Ki was 0.04 nM.

As for `CCn1cc(-c2cc3c(-c4ccc(Br)c(N5CCNCC5)n4)n[nH]c3cn2)cn1` [Example 404, 3-(5-bromo-6-(piperazin-1-yl)pyridin-2-yl)-5-(1-ethyl-1H-pyrazol-4-yl)-1H-pyrazolo[3,4-c]pyridine], the Ki came out at 0.09 nM.

On to `Cn1cc(-c2cc3c(-c4ccc(Br)c(N5CC(N6CCNC(=O)C6)C5)n4)n[nH]c3cn2)cn1` [Example 405, 4-(1-(3-bromo-6-(5-(1-methyl-1H-pyrazol-4-yl)-1H-pyrazolo[3,4-c]pyridin-3-yl)pyridin-2-yl)azetidin-3-yl)piperazin-2-one], for which the affinity, expressed as Ki, was 0.527 nM.

For `Cn1cc(-c2cc3c(-c4ccc(Br)c(N5CCN(CCS(C)(=O)=O)C(C)(C)C5)n4)n[nH]c3cn2)cn1` [Example 406, 3-(5-bromo-6-(3,3-dimethyl-4-(2-(methylsulfonyl)ethyl)piperazin-1-yl)pyridin-2-yl)-5-(1-methyl-1H-pyrazol-4-yl)-1H-pyrazolo[3,4-c]pyridine], the Ki came out at 0.259 nM.

With `CCn1cc(-c2cc3c(-c4cccc(N5CCCNCC5)n4)n[nH]c3cn2)cn1` [Example 409, 3-(6-(1,4-diazepan-1-yl)pyridin-2-yl)-5-(1-ethyl-1H-pyrazol-4-yl)-1H-pyrazolo[3,4-c]pyridine], the affinity, expressed as Ki, was 0.02 nM.

Regarding `CCn1cc(-c2cc3c(-c4cccc(N5CCNC[C@H](O)C5)n4)n[nH]c3cn2)cn1` [Example 410, (S)-1-(6-(5-(1-ethyl-1H-pyrazol-4-yl)-1H-pyrazolo[3,4-c]pyridin-3-yl)pyridin-2-yl)-1,4-diazepan-6-ol], the Ki came to 0.039 nM.

In turn, `CCn1cc(-c2cc3c(-c4cccc(N5CCNC[C@@H](O)C5)n4)n[nH]c3cn2)cn1` [Example 411, (R)-1-(6-(5-(1-ethyl-1H-pyrazol-4-yl)-1H-pyrazolo[3,4-c]pyridin-3-yl)pyridin-2-yl)-1,4-diazepan-6-ol] showed a Ki of 0.014 nM.

`C=Cc1ccc(-c2n[nH]c3cnc(-c4cnn(C)c4)cc23)nc1N1CCC[C@H](N)C1` [Example 412, (S)-1-(6-(5-(1-methyl-1H-pyrazol-4-yl)-1H-pyrazolo[3,4-c]pyridin-3-yl)-3-vinylpyridin-2-yl)piperidin-3-amine]: the affinity corresponds to a Ki of 0.036 nM.

For the compound `Cc1ccc(-c2n[nH]c3cnc(-c4cnn(C)c4)cc23)nc1N1CC(N2CCS(=O)(=O)CC2)C1` [Example 413, 4-(1-(3-methyl-6-(5-(1-methyl-1H-pyrazol-4-yl)-1H-pyrazolo[3,4-c]pyridin-3-yl)pyridin-2-yl)azetidin-3-yl)-1,1-dioxo thiomorpholine], the affinity, expressed as Ki, was 1.02 nM.

Take `C=C(C)c1ccc(-c2n[nH]c3cnc(-c4cnn(C)c4)cc23)nc1N1CCC[C@H](N)C1` [Example 414, (S)-1-(6-(5-(1-methyl-1H-pyrazol-4-yl)-1H-pyrazolo[3,4-c]pyridin-3-yl)-3-(prop-1-en-2-yl)pyridin-2-yl)piperidin-3-amine]: the Ki amounted to 0.028 nM.

`O=C1OCCN1c1cc2c(-c3cccc(N4CCNCC4)n3)n[nH]c2cn1` [Example 415, 3-(3-(6-(piperazin-1-yl)pyridin-2-yl)-1H-pyrazolo[3,4-c]pyridin-5-yl)oxazolidin-2-one]: the Ki came out at 104 nM.

For the compound `c1cc(-c2n[nH]c3cnc(-c4cnn(CC5COC5)c4)cc23)nc(N2CCNCC2)c1` [Example 416, 5-(1-(oxetan-3-ylmethyl)-1H-pyrazol-4-yl)-3-(6-(piperazin-l-yl)pyridin-2-yl)-1H-pyrazolo[3,4-c]pyridine], the Ki was determined as 11.3 nM.

In turn, `Cc1ccc(-c2n[nH]c3cnc(-c4cnn(C)c4)cc23)nc1N1CCC[C@@H](O)C1` [Example 418, (R)-1-(3-methyl-6-(5-(1-methyl-1H-pyrazol-4-yl)-1H-pyrazolo[3,4-c]pyridin-3-yl)pyridin-2-yl)piperidin-3-ol] returned a Ki of 0.11 nM.

Compound `Cc1ccc(-c2n[nH]c3cnc(-c4cnn(C)c4)cc23)nc1N1CCOCC1` [Example 419, 4-(3-methyl-6-(5-(1-methyl-1H-pyrazol-4-yl)-1H-pyrazolo[3,4-c]pyridin-3-yl)pyridin-2-yl)morpholine] came in with a Ki of 0.16 nM.

As to `Cn1cc(-c2cc3c(-c4cccc(N5CCOCC5)n4)n[nH]c3cn2)cn1` [Example 420, 4-(6-(5-(1-methyl-1H-pyrazol-4-yl)-1H-pyrazolo[3,4-c]pyridin-3-yl)pyridin-2-yl)morpholine], the Ki was determined as 0.368 nM.

Regarding `FC1(c2cccc(-c3n[nH]c4cnc(-c5cccnc5)cc34)n2)CCNCC1` [Example 421, 3-(6-(4-fluoropiperidin-4-yl)pyridin-2-yl)-5-(pyridin-3-yl)-1H-pyrazolo[3,4-c]pyridine], the affinity, expressed as Ki, was 0.105 nM.

Regarding `OC1(c2cccc(-c3n[nH]c4cnc(-c5cccnc5)cc34)n2)CCNCC1` [Example 422, 4-(6-(5-(pyridin-3-yl)-1H-pyrazolo[3,4-c]pyridin-3-yl)pyridin-2-yl)piperidin-4-ol], the Ki is 300 nM.

For the compound `Cn1cc(-c2cc3c(-c4cccc(N5CCC[C@](C)(O)C5)n4)n[nH]c3cn2)cn1` [Example 423, (S)-3-methyl-1-(6-(5-(1-methyl-1H-pyrazol-4-yl)-1H-pyrazolo[3,4-c]pyridin-3-yl)pyridin-2-yl)piperidin-3-ol], affinity was put at a Ki of 0.128 nM.

On to `Cn1cc(-c2cc3c(-c4cccc(N5CCC[C@@](C)(O)C5)n4)n[nH]c3cn2)cn1` [Example 424, (R)-3-methyl-1-(6-(5-(1-methyl-1H-pyrazol-4-yl)-1H-pyrazolo[3,4-c]pyridin-3-yl)pyridin-2-yl)piperidin-3-ol], for which affinity was put at a Ki of 0.073 nM.

In turn, `Cc1ccc(-c2n[nH]c3cnc(-c4cnn(C)c4)cc23)nc1N1CC(N2CCNC(=O)C2)C1` [Example 425, 4-(1-(3-methyl-6-(5-(1-methyl-1H-pyrazol-4-yl)-1H-pyrazolo[3,4-c]pyridin-3-yl)pyridin-2-yl)azetidin-3-yl)piperazin-2-one] registered an inhibition constant Ki of 0.618 nM.

As for `Cc1ccc(-c2n[nH]c3cnc(-c4cccnc4)cc23)nc1N1CC(N2CCNC(=O)C2)C1` [Example 426, 4-(1-(3-methyl-6-(5-(pyridin-3-yl)-1H-pyrazolo[3,4-c]pyridin-3-yl)pyridin-2-yl)azetidin-3-yl)piperazin-2-one], the Ki was 0.46 nM.
